Laboratory results: patent US20240383971A1, “Anti-DFS70 Autoantibodies and methods of attenuating formation of nets” (McMaster University, priority 2023, published 2024)

Tested on: neutrophils isolated from healthy donors
Test: In vitro NETosis assay (SEM images, MATLAB quantification)
Assay type: cell-based, human
Conditions: healthy donor neutrophils pooled n=4, 6 hrs

## CCCCCCCCCCCCCC(=O)O[C@@H]1[C@@H](C)[C@@]2(O)[C@@H](C=C(CO)C[C@]3(O)C(=O)C(C)=C[C@@H]23)[C@@H]2C(C)(C)[C@]12OC(C)=O [PMA, Phorbol 12-myristate 13-acetate]
  induction of NETosis in healthy neutrophils: stimulated to NETosis

## CNc1ccc2oc(C[C@H]3O[C@@]4(CC[C@H]3C)O[C@H]([C@H](C)C(=O)c3ccc[nH]3)[C@H](C)C[C@H]4C)nc2c1C(=O)O [A23187]
  induction of NETosis in healthy neutrophils: stimulated to NETosis
